Test results published in patent US4727074A, “2-(phenylmethylene)-1-(diaminoalkoxy) cycloalkanes and their pharmaceutical uses” (priority 1983, dated 1988).

Key:
[1] = system: Hexobarbital sleeping time; assay: animal or person; type: in vivo; settings: for ED50 (narcosis potentiating effect): mice, Hexobarbital i.v., effect = sleeping time 2.5 times longer than control; for Therapeutical index (narcosis potentiating): Table I, LD50/ED50, mice; for ED50: Mus musculus, iv, read-out: ED50 (narcosis potentiating effect)
Experimental: (2) Narcosis potentiating effect
To mice having a body weight of 20-24 g Hexobarbital is administered intravenously in a dose of […]. The sleeping time of the treated and control animals is measured.

aconitine = assay: animal or person; type: in vivo, rats; settings: for Percental inhibition of aconitine: rats, 2 minutes before aconitine; for ED50: Rattus norvegicus, iv, read-out: Percental aconitine inhibition ED50; for Therapeutical index (antiarrhythmial): Table IV, LD50 i.v./ED50
Experimental: (4) Antiarrhythmial effect on rats
The antiarrhythmial effect is determined on rats (both male and female; body weight 160-200 g) according to the modified test of Marmo et al. [Marmo et al.: Arzneimittelforschung 20, 12 (1970)]. Aconitine is intravenously administered in the form of a bolus injection. The ECG deviations are followed for 5 minutes by a standard II method. The test compound is administered intravenously 2 minutes before the addition of aconitine.
In Table IV the antiarrhythmial effect of a representative compound of the present invention is compared to that of a very active compound specifically disclosed in Hungarian Pat. No. 169,298. The test is carried out as disclosed in connection with Table III.

writhing reactions = assay: Analgesic effect on mice (acetic acid writhing); type: in vivo; settings: for Therapeutical index (analgesic): Table II, LD50/ED50, mice; for ED50 (analgesic effect) / ED50 (analgesic effect), inactive: mice, oral; for ED50 (analgesic effect): one hour prior to 0.5% acetic acid; for ED50: Mus musculus, po, 1 h, read-out: ED50 (analgesic effect)
Experimental: (3) Analgesic effect on mice
To mice 0.4 ml of 0.5% acetic acid is […] administered. After 5 minutes the characteristic writhing reactions are counted for a period of 5 minutes. The test compound is administered orally one hour prior to the administration of acetic acid. The activity is expressed in the percentage of the data obtained for the control group.

[2] = system: white mice of the CFLP strain; assay: Acute toxicity on mice (oral); type: in vivo; settings: 4 days observation
Experimental: (§1) (1) Acute toxicity on mice
(§2) The acute toxicity is determined on male and female white mice of the CFLP strain. The body weight of the animals amounts to 18-24 g. The test compound is administered orally in a dose of 20 ml/kg. After treatment the animals are placed in a mouse box and kept on scrapings litter at room temperature. The animals receive mouse fodder and tap water ad libitum.

[3] = Acute toxicity on mice (oral); type: in vivo; settings: mouse, in vivo, 4 days observation
Experimental: as §1, §2

[4] = Acute toxicity i.v. (LD50 of Table IV); settings: rat, in vivo

CN(C)CCCON=C1CCCCC1Cc1ccc(Cl)cc1 (stereo not drawn) [Reference compound E, 1-(3'-dimethylamino-propoxyimino)-2-(p-chlorobenzyl)-cyclohexane, reference compound]
ED50 (narcosis potentiating effect) [1]: inactive in a dose of 170 mg/kg

CCN(CC)CC(=O)Nc1c(C)cccc1C [Lidocaine, N,N-diethyl-2,6-dimethyl-acetanilide, reference compound]
Percental inhibition of aconitine (aconitine; dose 4 mg/kg i.v.): 23.5 Percental

CN(C)CCCO/N=C1\CCCCCC\C1=C/c1ccccc1 [Example 11]
Therapeutical index (analgesic) (writhing reactions): 6.7 | ED50 (analgesic effect) (writhing reactions): 150 mg/kg | LD50 ([2]; Table I): 1000 mg/kg | LD50 ([2]; Table II): 1000 mg/kg | Therapeutical index (narcosis potentiating) [1]: 500.0 | ED50 (narcosis potentiating effect) [1]: 2 mg/kg

CC(C)N(CCCO/N=C1\CCCC\C1=C/c1ccc(Cl)cc1)C(C)C [Example 3, 2-[(E)-(p-chloro-phenylmethylene)]-1-[(E)-(3'-diisopropylamino-propoxyimino)]-cyclohexane]
ED50 (writhing reactions): 45 mg/kg | Therapeutical index (analgesic) (writhing reactions): 24.2 | LD50 at 96 h ([3]; po, Table II): 1100 mg/kg

CN(C)CCO/N=C1\CCCC\C1=C/c1ccc(Cl)cc1 [Example 13]
Percental inhibition of aconitine (aconitine; dose 2 mg/kg i.v.): 35.3 Percental | LD50 at 96 h ([3]; po, Table I): 2000 mg/kg | ED50 [1]: 10 mg/kg | Therapeutical index (narcosis potentiating) [1]: 200.0

CC(C)N(CCCO/N=C1\CCCC\C1=C/c1ccccc1)C(C)C [Example 4, 2-[(E)-phenylmethylene]-1-[(E)-(3'-diisopropylamino-propoxyimino)]-cyclohexane]
ED50 (aconitine): 0.54 mg/kg | Therapeutical index (antiarrhythmial) (aconitine): 23.14 | Percental inhibition of aconitine (aconitine; dose 1 mg/kg i.v.): 86.2 Percental | LD50 [4]: 12.5 mg/kg

Clc1cccc(/C=C2\CCCCC\C2=N/OCCCN2CCN(Cc3ccccc3)CC2)c1 [Example 2, 2-[(E)-(m-chloro-phenylmethylene)]-1-[(E)-(4'-benzylpiperazinyl-propoxyimino)]-cycloheptane]
Therapeutical index (analgesic) (writhing reactions): 17.2 | ED50 (analgesic effect) (writhing reactions): 43 mg/kg | LD50 ([2]; Table II): 740 mg/kg

COc1ccc(C=C2CCCCC2=NOCCCN(C)C)cc1 [Reference compound F, 1-(3'-dimethylamino-propoxyimino)-2-(p-methoxybenzal)-cyclohexane, reference compound]
ED50 (analgesic effect), inactive (writhing reactions; in a dose of 350 mg/kg): inactive | LD50 at 96 h ([3]; po, Table II): 1750 mg/kg

CC(C)N(CCON=C1CCCCCC1=Cc1ccccc1)C(C)C [Reference compound G, 2-benzal-1-(2'-diisopropylamino-ethoxyimino)-cycloheptane, reference compound]
ED50 (aconitine): 2 mg/kg | Therapeutical index (antiarrhythmial) (aconitine): 10.59 | LD50 [4]: 21.2 mg/kg | ED50 (analgesic effect), inactive (writhing reactions; in a dose of 65 mg/kg): inactive | LD50 at 96 h ([3]; po, Table II): 325 mg/kg

COc1ccccc1C=C1CCCCC1=NOCC(C)CN(C)C (stereo not drawn) [Reference compound C, 1-(2'-methyl-3'-dimethylaminopropoxyimino)-2-(o-methoxy-benzal)-cyclohexane, reference compound]
ED50 (narcosis potentiating effect) [1]: inactive in a dose of 100 mg/kg

CC(C)N(CCO/N=C1\CCCCC\C1=C\c1ccccc1)C(C)C [Example 5, 2-[(Z)-phenylmethylene]-1-[(E)-(2'-diisopropylamino-ethoxyimino)]-cycloheptane]
Percental inhibition of aconitine (aconitine; dose 4 mg/kg i.v.): 34.7 Percental | LD50 at 96 h ([3]; po, Table I): 800 mg/kg | ED50 [1]: 40 mg/kg | Therapeutical index (narcosis potentiating) [1]: 20.0

CC(CO/N=C1\CCCC\C1=C/c1ccccc1)N(C)C (stereo not drawn) [Example 9, 2-[(E)-phenylmethylene]-1-[(E)-(2'-dimethylamino-2'-methyl-1-ethoxyimino)]-cyclohexane]
LD50 at 96 h ([3]; po, Table I): 600 mg/kg | ED50 [1]: 23 mg/kg | Therapeutical index (narcosis potentiating) [1]: 26.0

CC(C)N(CCO/N=C1\CCCC\C1=C/c1ccccc1)C(C)C [Example 12]
Percental inhibition of aconitine (aconitine; dose 2 mg/kg i.v.): 39.2 Percental

CC(C)N(CCO/N=C1\CCCCCC\C1=C/c1ccccc1)C(C)C [Example 10, 2-[(E)-phenylmethylene]-1-[(E)-(2'-diisopropylamino-ethoxyimino)]-cyclooctane]
Percental inhibition of aconitine (aconitine; dose 4 mg/kg i.v.): 57.6 Percental | ED50 (writhing reactions): 58 mg/kg | Therapeutical index (analgesic) (writhing reactions): 6.9 | LD50 at 96 h ([3]; po, Table II): 400 mg/kg

CC(=O)Nc1ccc(O)cc1 [Paracetamol, 4-hydroxy-acetanilide, reference compound]
ED50 (writhing reactions): 180 mg/kg

C(=C1/CCCC/C1=N\OCCCN1CCN(c2ccccc2)CC1)/c1ccccc1 [Example 1, 2-[(E)-phenylmethylene]-1-[(E)-(4'-phenyl-piperazinyl-propoxyimino)]-cyclohexane]
ED50 (writhing reactions): 200 mg/kg | Therapeutical index (analgesic) (writhing reactions): > 10.0 | LD50 at 96 h ([3]; po, Table I): 2000 mg/kg | LD50 at 96 h ([3]; po, Table II): > 2000 mg/kg | ED50 [1]: 200 mg/kg | Therapeutical index (narcosis potentiating) [1]: 10.0

CN(C)CCCON=C1CCCCC1Cc1ccccc1 (stereo not drawn) [Reference compound A, 2-benzyl-1-(3'-dimethylamino-propoxy-imino)-cyclohexane, reference compound]
LD50 at 96 h ([3]; po, Table II): 250 mg/kg | ED50 (narcosis potentiating effect) [1]: inactive in a dose of 50 mg/kg

CCCC(C)(COC(N)=O)COC(N)=O [Meprobamate, 2-methyl-2-n-propyl-1,3-propanediol-dicarbamate, reference compound]
LD50 at 96 h ([3]; Table I): 1100 mg/kg | ED50 [1]: 260 mg/kg | Therapeutical index (narcosis potentiating) [1]: 4.2

CC(CO/N=C1\CCCCC\C1=C/c1ccccc1)N(C)C (stereo not drawn) [Example 8, 2-[(E)-phenylmethylene]-1-[(E)-(2'-dimethylamino-2'-methyl-1-ethoxyimino)]-cycloheptane]
LD50 at 96 h ([3]; po, Table I): 800 mg/kg | ED50 [1]: 22 mg/kg | Therapeutical index (narcosis potentiating) [1]: 36.4
